Results as given in patent US20260092071A1, “COMPOUNDS AND COMPOSITIONS AS SMARCA2/4 DEGRADERS AND USES THEREOF” (REGENTS OF THE UNIVERSITY OF MICHIGAN, priority 2022, published 2026).

Columns and labels:
SMARCA4 = SMARCA4 (Homo sapiens, UniProt P51532); assay: HiBiT assay for protein degradation, Hela SMARCA4-HiBiT cells (A series); type: cell-based; design: fuse HiBiT to the carboxy terminus of SMARCA2 (Promega CS302365) or SMARCA4 (Promega CS3023225); host or cells: HeLa (CRISPR/Cas9 HiBiT knock-in); conditions: Hela SMARCA4-HiBiT cells, 24 hours treatment; for DC50: read-out: SMARC A4 Hela HiBit DC50; for Dmax: read-out: SMARC A4 Hela HiBit Dmax
Summary of the method: (§1)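 HeLa cells engineered by CRISPR/Cas9 to carry a HiBiT tag fused to the C-terminus of SMARCA4 (Promega CS3023225) were grown in DMEM supplemented with FBS and penicillin-streptomycin. After compound exposure, remaining SMARCA4 protein was quantified using the Nano-Glo® HiBiT Lytic Detection Assay (Promega N3050), and curves were fitted in GraphPad Prism.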

SMARCA2 = SMARCA2 (Homo sapiens, UniProt P51531); assay: HiBiT assay for protein degradation, Hela SMARCA2-HiBiT cells (A series); type: cell-based; design: Hela cells were genetically modified via CRISPR/Cas9 to fuse HiBiT to the carboxy terminus of SMARCA2; host or cells: HeLa (CRISPR/Cas9 HiBiT knock-in); conditions: Hela SMARCA2-HiBiT cells, 24 hours treatment; for DC50: read-out: SMARC A2 Hela HiBit DC50; for Dmax: read-out: SMARC A2 Hela HiBit Dmax (%);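 on SMARC A2 Hela HiBit Dmax (%): 24 h compound treatment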
Summary of the method: as §1, with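 “SMARCA2” for “SMARCA4”, “CS302365)” for “CS3023225)”, “treatment,” for “compound exposure,”, “with” for “using”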

Sequence of SMARCA2 (P51531 whole entry): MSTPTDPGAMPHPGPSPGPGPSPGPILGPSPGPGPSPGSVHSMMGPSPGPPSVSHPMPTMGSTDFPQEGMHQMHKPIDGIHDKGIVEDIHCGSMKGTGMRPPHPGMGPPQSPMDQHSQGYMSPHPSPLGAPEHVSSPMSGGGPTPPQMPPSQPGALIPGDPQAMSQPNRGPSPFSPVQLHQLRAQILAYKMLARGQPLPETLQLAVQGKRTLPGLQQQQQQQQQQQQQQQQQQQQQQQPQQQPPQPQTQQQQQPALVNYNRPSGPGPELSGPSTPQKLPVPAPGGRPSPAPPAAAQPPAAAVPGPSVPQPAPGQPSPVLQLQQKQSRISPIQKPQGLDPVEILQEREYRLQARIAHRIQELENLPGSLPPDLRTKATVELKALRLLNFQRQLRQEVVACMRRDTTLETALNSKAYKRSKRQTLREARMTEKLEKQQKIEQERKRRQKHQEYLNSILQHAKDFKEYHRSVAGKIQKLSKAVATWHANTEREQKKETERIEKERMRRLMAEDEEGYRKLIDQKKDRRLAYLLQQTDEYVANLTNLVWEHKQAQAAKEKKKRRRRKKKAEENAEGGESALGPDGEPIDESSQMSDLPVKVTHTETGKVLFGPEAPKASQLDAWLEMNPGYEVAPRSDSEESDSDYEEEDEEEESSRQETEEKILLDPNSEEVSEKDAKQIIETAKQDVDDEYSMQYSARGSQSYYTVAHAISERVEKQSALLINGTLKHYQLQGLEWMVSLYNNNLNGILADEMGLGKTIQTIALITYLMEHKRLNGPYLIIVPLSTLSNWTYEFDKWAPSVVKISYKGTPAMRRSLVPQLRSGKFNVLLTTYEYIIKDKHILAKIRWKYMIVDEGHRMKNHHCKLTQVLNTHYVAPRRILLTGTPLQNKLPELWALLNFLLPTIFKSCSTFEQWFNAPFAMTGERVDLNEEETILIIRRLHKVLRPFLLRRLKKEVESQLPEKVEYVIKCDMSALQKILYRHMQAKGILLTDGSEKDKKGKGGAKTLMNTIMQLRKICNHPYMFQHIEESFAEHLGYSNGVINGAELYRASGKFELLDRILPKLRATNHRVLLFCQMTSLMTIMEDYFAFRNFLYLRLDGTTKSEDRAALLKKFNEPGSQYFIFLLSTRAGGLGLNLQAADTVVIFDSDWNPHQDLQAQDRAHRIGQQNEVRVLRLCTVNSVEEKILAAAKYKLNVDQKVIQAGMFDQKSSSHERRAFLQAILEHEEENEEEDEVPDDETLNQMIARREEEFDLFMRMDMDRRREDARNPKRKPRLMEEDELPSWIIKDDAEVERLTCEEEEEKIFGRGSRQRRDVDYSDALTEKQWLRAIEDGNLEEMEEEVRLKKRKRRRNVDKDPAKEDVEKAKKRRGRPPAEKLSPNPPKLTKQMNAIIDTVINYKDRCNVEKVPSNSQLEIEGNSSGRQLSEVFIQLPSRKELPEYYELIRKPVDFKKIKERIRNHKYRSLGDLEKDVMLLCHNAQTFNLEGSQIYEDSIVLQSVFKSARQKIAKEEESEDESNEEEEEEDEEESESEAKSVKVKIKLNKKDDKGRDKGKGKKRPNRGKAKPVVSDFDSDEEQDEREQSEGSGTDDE
Sequence of SMARCA4 (P51532 whole entry, the tested form may be a part): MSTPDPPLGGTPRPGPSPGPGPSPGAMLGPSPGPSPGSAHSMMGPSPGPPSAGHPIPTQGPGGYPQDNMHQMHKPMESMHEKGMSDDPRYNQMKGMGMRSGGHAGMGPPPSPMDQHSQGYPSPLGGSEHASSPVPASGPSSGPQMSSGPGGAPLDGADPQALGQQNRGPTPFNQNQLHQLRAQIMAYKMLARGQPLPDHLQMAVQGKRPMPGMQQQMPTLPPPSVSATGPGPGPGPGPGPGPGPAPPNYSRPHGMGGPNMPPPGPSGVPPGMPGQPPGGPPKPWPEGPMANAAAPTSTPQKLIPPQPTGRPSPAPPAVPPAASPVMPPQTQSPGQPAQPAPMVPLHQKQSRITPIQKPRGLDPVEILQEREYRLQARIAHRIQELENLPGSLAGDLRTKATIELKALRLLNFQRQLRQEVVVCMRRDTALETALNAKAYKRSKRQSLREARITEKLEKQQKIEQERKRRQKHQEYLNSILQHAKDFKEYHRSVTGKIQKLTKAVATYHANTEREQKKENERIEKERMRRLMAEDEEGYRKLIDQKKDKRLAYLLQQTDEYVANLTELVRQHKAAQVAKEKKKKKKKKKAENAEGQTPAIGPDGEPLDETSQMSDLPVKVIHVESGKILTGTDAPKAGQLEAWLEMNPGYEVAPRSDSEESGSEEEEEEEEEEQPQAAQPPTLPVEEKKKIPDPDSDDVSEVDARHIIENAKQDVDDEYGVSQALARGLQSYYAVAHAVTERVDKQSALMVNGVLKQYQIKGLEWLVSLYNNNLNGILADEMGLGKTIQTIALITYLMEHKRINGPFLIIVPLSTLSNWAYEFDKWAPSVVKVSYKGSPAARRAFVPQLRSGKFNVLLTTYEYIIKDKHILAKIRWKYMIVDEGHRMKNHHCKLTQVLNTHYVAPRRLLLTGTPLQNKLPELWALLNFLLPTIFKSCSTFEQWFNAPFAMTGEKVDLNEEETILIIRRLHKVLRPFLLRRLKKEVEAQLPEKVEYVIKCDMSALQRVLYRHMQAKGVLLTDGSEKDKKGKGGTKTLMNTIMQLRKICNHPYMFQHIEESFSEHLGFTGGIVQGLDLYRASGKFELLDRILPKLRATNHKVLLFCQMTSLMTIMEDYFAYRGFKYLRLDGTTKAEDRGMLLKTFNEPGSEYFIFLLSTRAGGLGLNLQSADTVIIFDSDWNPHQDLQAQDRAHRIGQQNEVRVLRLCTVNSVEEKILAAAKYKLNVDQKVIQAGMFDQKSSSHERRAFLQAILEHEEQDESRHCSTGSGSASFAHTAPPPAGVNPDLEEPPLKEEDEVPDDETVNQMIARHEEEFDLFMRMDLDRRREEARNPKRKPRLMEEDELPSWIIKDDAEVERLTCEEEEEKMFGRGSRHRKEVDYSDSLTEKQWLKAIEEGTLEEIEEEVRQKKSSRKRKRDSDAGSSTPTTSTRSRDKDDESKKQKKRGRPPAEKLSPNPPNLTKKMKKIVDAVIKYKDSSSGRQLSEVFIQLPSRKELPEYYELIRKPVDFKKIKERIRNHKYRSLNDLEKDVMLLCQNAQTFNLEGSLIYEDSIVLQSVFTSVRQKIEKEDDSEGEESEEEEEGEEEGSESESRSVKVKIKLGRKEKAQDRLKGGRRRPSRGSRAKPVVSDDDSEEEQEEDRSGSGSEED

| DC50 (SMARCA4) | Dmax (SMARCA4) | DC50 (SMARCA2) | Dmax (SMARCA2) | SMILES |
| --- | --- | --- | --- | --- |
| > 1 µM | < 50% | 0.1 to 1 µM | 70 to 90% | Cc1ncsc1-c1ccc([C@H](COCC(=O)O)NC(=O)[C@@H]2C[C@@H](O)CN2C(=O)[C@@H](n2cc([C@H]3CC[C@H](CN4CCC(c5ccc6c(c5)-n5c(nc(=O)c7c(Cl)cccc75)C65CCCCC5)CC4)CC3)nn2)C(C)(C)C)cc1 [Compound A155, 2-((R)-2-((2S,4R)-1-((S)-2-(4-((1r,4S)-4-((4-(4′-chloro-5′-oxo-5′H-spiro[cyclohexane-1,7′-indolo[1,2-a]quinazolin]-10′-yl)piperidin-1-yl)methyl)cyclohexyl)-1H-1,2,3-triazol-1-yl)-3,3-dimethylbutanoyl)-4-hydroxypyrrolidine-2-carboxamido)-2-(4-(4-methylthiazol-5-yl)phenyl)ethoxy) acetic acid] |
| > 1 µM | < 50% | 0.1 to 1 µM | 70 to 90% | Cc1ncsc1-c1ccc([C@H](CN2CCC(C(=O)O)CC2)NC(=O)[C@@H]2C[C@@H](O)CN2C(=O)[C@@H](n2cc([C@H]3CC[C@H](CN4CCC(c5ccc6c(c5)-n5c(nc(=O)c7c(Cl)cccc75)C65CCCCC5)CC4)CC3)nn2)C(C)(C)C)cc1 [Compound A156, 1-((R)-2-((2S,4R)-1-((S)-2-(4-((1r,4S)-4-((4-(4′-chloro-5′-oxo-5′H-spiro[cyclohexane-1,7′-indolo[1,2-a]quinazolin]-10′-yl)piperidin-1-yl)methyl)cyclohexyl)-1H-1,2,3-triazol-1-yl)-3,3-dimethylbutanoyl)-4-hydroxypyrrolidine-2-carboxamido)-2-(4-(4-methylthiazol-5-yl)phenyl)ethyl)piperidine-4-carboxylic acid] |
| > 1 µM | < 50% | 0.1 to 1 µM | 70 to 90% | Cc1ncsc1-c1ccc([C@H](CN2CC(C(=O)O)C2)NC(=O)[C@@H]2C[C@@H](O)CN2C(=O)[C@@H](n2cc([C@H]3CC[C@H](CN4CCC(c5ccc6c(c5)-n5c(nc(=O)c7c(Cl)cccc75)C65CCCCC5)CC4)CC3)nn2)C(C)(C)C)cc1 [Compound A157, 1-((R)-2-((2S,4R)-1-((S)-2-(4-((1r,4S)-4-((4-(4′-chloro-5′-oxo-5′H-spiro[cyclohexane-1,7′-indolo[1,2-a]quinazolin]-10′-yl)piperidin-1-yl)methyl)cyclohexyl)-1H-1,2,3-triazol-1-yl)-3,3-dimethylbutanoyl)-4-hydroxypyrrolidine-2-carboxamido)-2-(4-(4-methylthiazol-5-yl)phenyl)ethyl) azetidine-3-carboxylic acid] |
| > 1 µM | 50 to 69% | < 0.01 µM | > 90% | Cc1ncsc1-c1ccc([C@H](CN2CCOCC2)NC(=O)[C@@H]2C[C@@H](O)CN2C(=O)[C@@H](n2cc([C@H]3CC[C@H](CN4CCC(c5ccc6c(c5)-n5c(nc(=O)c7c(Cl)cccc75)C65CCCCC5)CC4)CC3)nn2)C(C)(C)O)cc1 [Compound A158, (2S,4R)-1-((S)-2-(4-((1r,4S)-4-((4-(4′-chloro-5′-oxo-5′H-spiro[cyclohexane-1,7′-indolo[1,2-a]quinazolin]-10′-yl)piperidin-1-yl)methyl)cyclohexyl)-1H-1,2,3-triazol-1-yl)-3-hydroxy-3-methylbutanoyl)-4-hydroxy-N-((R)-1-(4-(4-methylthiazol-5-yl)phenyl)-2-morpholinoethyl)pyrrolidine-2-carboxamide] |
| > 1 µM | 50 to 69% | < 0.01 µM | > 90% | Cc1ncsc1-c1ccc([C@H](CN2CCOCC2)NC(=O)[C@@H]2C[C@@H](O)CN2C(=O)[C@@H](n2cc([C@H]3CC[C@H](CN4CCC(c5ccc6c(c5)-n5c(nc(=O)c7c(Cl)cccc75)C6(C)C)CC4)CC3)nn2)C(C)(C)O)cc1 [Compound A159, (2S,4R)-1-((S)-2-(4-((1r,4S)-4-((4-(4-chloro-7,7-dimethyl-5-oxo-5,7-dihydroindolo[1,2-a]quinazolin-10-yl)piperidin-1-yl)methyl)cyclohexyl)-1H-1,2,3-triazol-1-yl)-3-hydroxy-3-methylbutanoyl)-4-hydroxy-N-((R)-1-(4-(4-methylthiazol-5-yl)phenyl)-2-morpholinoethyl)pyrrolidine-2-carboxamide] |
| > 1 µM | 50 to 69% | < 0.01 µM | > 90% | Cc1ncsc1-c1ccc([C@H](CN2CCOCC2)NC(=O)[C@@H]2C[C@@H](O)CN2C(=O)[C@@H](n2cc([C@H]3CC[C@H](CN4CCC(c5ccc6c(c5)-n5c(nc(=O)c7c(Br)cccc75)C65CCCCC5)CC4)CC3)nn2)C(C)(C)O)cc1 [Compound A160, (2S,4R)-1-((S)-2-(4-((1r,4S)-4-((4-(4′-bromo-5′-oxo-5′H-spiro[cyclohexane-1,7′-indolo[1,2-a]quinazolin]-10′-yl)piperidin-1-yl)methyl)cyclohexyl)-1H-1,2,3-triazol-1-yl)-3-hydroxy-3-methylbutanoyl)-4-hydroxy-N-((R)-1-(4-(4-methylthiazol-5-yl)phenyl)-2-morpholinoethyl)pyrrolidine-2-carboxamide] |
| 0.1 to 1 µM | 50 to 69% | < 0.01 µM | > 90% | Cc1nc(C)c(-c2ccc([C@H](CN3CCOCC3)NC(=O)[C@@H]3C[C@@H](O)CN3C(=O)[C@@H](n3cc([C@H]4CC[C@H](CN5CCC(c6ccc7c(c6)-n6c(nc(=O)c8c(Cl)cccc86)C76CCCCC6)CC5)CC4)nn3)C(C)(C)C)cc2)s1 [Compound A161, (2S,4R)-1-((S)-2-(4-((1r,4S)-4-((4-(4′-chloro-5′-oxo-5′H-spiro[cyclohexane-1,7′-indolo[1,2-a]quinazolin]-10′-yl)piperidin-1-yl)methyl)cyclohexyl)-1H-1,2,3-triazol-1-yl)-3,3-dimethylbutanoyl)-N—((R)-1-(4-(2,4-dimethylthiazol-5-yl)phenyl)-2-morpholinoethyl)-4-hydroxypyrrolidine-2-carboxamide] |
| 0.1 to 1 µM | 50 to 69% | < 0.01 µM | > 90% | CC(C)(C)[C@@H](C(=O)N1C[C@H](O)C[C@H]1C(=O)N[C@@H](CN1CCOCC1)c1ccc(-c2ccccc2)cc1)n1cc([C@H]2CC[C@H](CN3CCC(c4ccc5c(c4)-n4c(nc(=O)c6c(Cl)cccc64)C54CCCCC4)CC3)CC2)nn1 [Compound A162, (2S,4R)—N—((R)-1-([1,1′-biphenyl]-4-yl)-2-morpholinoethyl)-1-((S)-2-(4-((1r,4S)-4-((4-(4′-chloro-5′-oxo-5′H-spiro[cyclohexane-1,7′-indolo[1,2-a]quinazolin]-10′-yl)piperidin-1-yl)methyl)cyclohexyl)-1H-1,2,3-triazol-1-yl)-3,3-dimethylbutanoyl)-4-hydroxypyrrolidine-2-carboxamide] |
| 0.1 to 1 µM | 50 to 69% | < 0.01 µM | > 90% | Cc1ccccc1-c1ccc([C@H](CN2CCOCC2)NC(=O)[C@@H]2C[C@@H](O)CN2C(=O)[C@@H](n2cc([C@H]3CC[C@H](CN4CCC(c5ccc6c(c5)-n5c(nc(=O)c7c(Cl)cccc75)C65CCCCC5)CC4)CC3)nn2)C(C)(C)C)cc1 [Compound A163, (2S,4R)-1-((S)-2-(4-((1r,4S)-4-((4-(4′-chloro-5′-oxo-5′H-spiro[cyclohexane-1,7′-indolo[1,2-a]quinazolin]-10′-yl)piperidin-1-yl)methyl)cyclohexyl)-1H-1,2,3-triazol-1-yl)-3,3-dimethylbutanoyl)-4-hydroxy-N—((R)-1-(2′-methyl-[1,1′-biphenyl]-4-yl)-2-morpholinoethyl)pyrrolidine-2-carboxamide] |
